Laboratory results published in patent US20250197368A1 (priority 2020, published 2025).
Counter-ions that a name gives are not always drawn.

Assays:
human α2β3γ2 GABAARs = assay: In vitro electrophysiological recording assay (automated patch-clamp), α2-GABAAR relative efficacy; assay type: cell-based; conditions: % efficacy normalised to diazepam; GABA EC10-20; concentration generally >= 100 times Ki
Summary of the method: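 Automated whole-cell patch clamp at 20-22° C on L(tk^−) cells (QPatch, −65 mV) or HEK293 cells (SyncroPatch, −80 mV) stably expressing the human receptor. Compound pre-applied ≥1 min, then co-applied with GABA EC10-20; % potentiation of leak-corrected peak current, normalised to diazepam, typically at ≥100× Ki.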

[1] = biological target: human α2β3γ2 GABAARs (benzodiazepine site) (Homo sapiens (Human), UniProt P18507+P47869); assay: In vitro radioligand binding assay ([3H]Ro15-1788 displacement), α2-GABAAR Ki
Summary of the method: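 Membranes from dexamethasone-induced mouse L(tk−) cells stably expressing the human receptor were incubated 1 h at 4° C with 4 nM [3H]Ro15-1788 and graded compound; nonspecific binding with 1-3 μM TP003. Filter-bound radioactivity counted; Ki from IC50 by Cheng-Prusoff using the measured radioligand Kd.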

Chain of human α2β3γ2 GABAARs (benzodiazepine site) (P47869 29-451): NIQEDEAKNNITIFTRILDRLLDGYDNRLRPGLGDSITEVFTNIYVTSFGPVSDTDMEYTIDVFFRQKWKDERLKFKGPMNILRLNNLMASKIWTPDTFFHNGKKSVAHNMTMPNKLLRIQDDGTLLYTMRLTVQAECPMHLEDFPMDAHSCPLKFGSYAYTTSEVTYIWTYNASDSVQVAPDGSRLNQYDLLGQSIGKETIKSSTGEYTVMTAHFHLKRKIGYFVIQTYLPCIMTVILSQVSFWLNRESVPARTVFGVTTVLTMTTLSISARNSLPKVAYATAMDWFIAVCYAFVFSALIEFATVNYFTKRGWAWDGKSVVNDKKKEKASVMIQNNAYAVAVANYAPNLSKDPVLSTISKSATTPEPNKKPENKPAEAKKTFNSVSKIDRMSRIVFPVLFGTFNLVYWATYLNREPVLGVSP
Chain of human α2β3γ2 GABAARs (benzodiazepine site) (P28472 26-473 partner): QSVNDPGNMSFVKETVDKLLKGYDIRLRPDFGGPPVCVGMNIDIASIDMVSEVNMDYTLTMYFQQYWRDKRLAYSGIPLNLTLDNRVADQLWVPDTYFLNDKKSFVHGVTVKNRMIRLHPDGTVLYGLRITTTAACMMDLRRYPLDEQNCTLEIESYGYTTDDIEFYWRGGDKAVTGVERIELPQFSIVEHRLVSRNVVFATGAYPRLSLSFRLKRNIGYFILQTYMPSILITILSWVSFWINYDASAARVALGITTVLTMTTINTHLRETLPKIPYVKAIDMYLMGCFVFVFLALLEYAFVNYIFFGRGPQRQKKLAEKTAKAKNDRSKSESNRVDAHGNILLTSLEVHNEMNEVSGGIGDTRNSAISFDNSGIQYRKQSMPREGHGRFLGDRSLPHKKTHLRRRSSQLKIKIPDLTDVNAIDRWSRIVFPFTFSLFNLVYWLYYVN
Chain of human α2β3γ2 GABAARs (benzodiazepine site) (P18507 40-475): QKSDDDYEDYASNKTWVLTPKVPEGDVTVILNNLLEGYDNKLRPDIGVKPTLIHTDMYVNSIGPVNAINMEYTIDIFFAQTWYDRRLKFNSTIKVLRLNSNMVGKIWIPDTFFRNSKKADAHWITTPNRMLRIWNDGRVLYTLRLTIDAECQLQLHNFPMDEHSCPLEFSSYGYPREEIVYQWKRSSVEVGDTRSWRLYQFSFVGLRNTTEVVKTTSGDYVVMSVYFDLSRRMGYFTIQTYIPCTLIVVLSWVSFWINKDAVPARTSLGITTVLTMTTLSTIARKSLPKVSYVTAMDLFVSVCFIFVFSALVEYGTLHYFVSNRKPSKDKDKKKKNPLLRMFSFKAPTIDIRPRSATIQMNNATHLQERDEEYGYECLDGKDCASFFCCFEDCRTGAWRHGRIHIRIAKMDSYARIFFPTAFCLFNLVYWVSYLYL

| Structure (SMILES) | α2-GABAAR Relative Efficacy (vs. Diazepam) (human α2β3γ2 GABAARs) | Ki [1] [nM] |
| --- | --- | --- |
| CCCNC(=O)c1c(N)c2cccc(-c3cc(OCc4coc(C(C)C)n4)ccc3F)c2[nH]c1=O [Example 123, 4-Amino-8-[2-fluoro-5-[(2-isopropyloxazol-4-yl)methoxy]phenyl]-2-oxo-N-propyl-1H-quinoline-3-carboxamide] | 0.2549 | 1.71 |
| CCCNC(=O)c1c(N)c2cccc(-c3cc(OCc4cncn4C)ccc3F)c2[nH]c1=O [Example 125, 4-Amino-8-(2-fluoro-5-((1-methyl-1H-imidazol-5-yl)methoxy)phenyl)-2-oxo-N-propyl-1,2-dihydroquinoline-3-carboxamide] | 0.22 | 0.37 |
| CCCNC(=O)c1c(N)c2cccc(-c3cc(OCc4cn(C)cn4)ccc3F)c2[nH]c1=O [Example 126, hydrochloride] | 0.27 | 1.19 |
| CCCNC(=O)c1c(N)c2cccc(-c3cc(OCc4cc[nH]n4)ccc3F)c2[nH]c1=O [Example 127, 4-Amino-8-[2-fluoro-5-(1H-pyrazol-3-ylmethoxy)phenyl]-2-oxo-N-propyl-1H-quinoline-3-carboxamide] | 0.24 | 0.78 |
| CCCNC(=O)c1c(N)c2cccc(-c3cc(OCc4ccn(C)n4)ccc3F)c2[nH]c1=O [Example 128, 4-Amino-8-[2-fluoro-5-[(1-methylpyrazol-3-yl)methoxy]phenyl]-2-oxo-N-propyl-1H-quinoline-3-carboxamide] | 0.24 | 1.08 |
| CCCNC(=O)c1c(N)c2cccc(-c3cc(OCc4cn(C)nn4)ccc3F)c2[nH]c1=O [Example 129, 4-Amino-8-[2-fluoro-5-[(1-methyltriazol-4-yl)methoxy]phenyl]-2-oxo-N-propyl-1H-quinoline-3-carboxamide] | 0.25 | 0.65 |
| CCCNC(=O)c1c(N)c2cccc(-c3cc(OCc4noc(C)n4)ccc3F)c2[nH]c1=O [Example 130, 4-Amino-8-[2-fluoro-5-[(5-methyl-1,2,4-oxadiazol-3-yl)methoxy]phenyl]-2-oxo-N-propyl-1H-quinoline-3-carboxamide] | 0.18 | 0.65 |
| CCCNC(=O)c1c(N)c2cccc(-c3cc(OCc4nnc(C)o4)ccc3F)c2[nH]c1=O [Example 131, 4-Amino-8-(2-fluoro-5-((5-methyl-1,3,4-oxadiazol-2-yl)methoxy)phenyl)-2-oxo-N-propyl-1,2-dihydroquinoline-3-carboxamide] | 0.40 | 0.3 |
| CCCNC(=O)c1c(N)c2cccc(-c3cc(OCc4ccc5[nH]cnc5c4)ccc3F)c2[nH]c1=O [Example 133, 8-(5-((1H-Benzo[d]imidazol-5-yl)methoxy)-2-fluorophenyl)-4-amino-2-oxo-N-propyl-1,2-dihydroquinoline-3-carboxamide] | 0.23 | 1.29 |
| CCCNC(=O)c1c(N)c2cccc(-c3cc(OCCn4cnnc4)ccc3F)c2[nH]c1=O [Example 134, 4-Amino-8-[2-fluoro-5-[2-(1,2,4-triazol-4-yl)ethoxy]phenyl]-2-oxo-N-propyl-1H-quinoline-3-carboxamide] | 0.04 | 0.17 |
| CCCNC(=O)c1c(N)c2cccc(-c3cc(OCC4CCOCC4)ccc3F)c2[nH]c1=O [Example 135, 4-Amino-8-[2-fluoro-5-(tetrahydropyran-4-ylmethoxy)phenyl]-2-oxo-N-propyl-1H-quinoline-3-carboxamide] | 0.20 | 0.7 |
| CCCNC(=O)c1c(N)c2cccc(-c3cc(OCC4COC4)ccc3F)c2[nH]c1=O [Example 136, 4-Amino-8-[2-fluoro-5-(oxetan-3-ylmethoxy)phenyl]-2-oxo-N-propyl-1H-quinoline-3-carboxamide] | 0.24 | 0.9 |
| CCCNC(=O)c1c(N)c2cccc(-c3cc(CN4CC5(CCN(C)C5)C4)ccc3F)c2[nH]c1=O [Example 139, 4-Amino-8-(2-fluoro-5-((6-methyl-2,6-diazaspiro[3.4]octan-2-yl)methyl)phenyl)-2-oxo-N-propyl-1,2-dihydroquinoline-3-carboxamide] | 0.18 | 1.08 |
| CCCNC(=O)c1c(N)c2cccc(-c3cc(CN4CC5(CCN(C)CC5)C4)ccc3F)c2[nH]c1=O [Example 140, 4-Amino-8-(2-fluoro-5-((7-methyl-2,7-diazaspiro[3.5]nonan-2-yl)methyl)phenyl)-2-oxo-N-propyl-1,2-dihydroquinoline-3-carboxamide] | 0.34 | 1.88 |
| CCCNC(=O)c1c(N)c2cccc(-c3cc(CN4CC5(CCOCC5)C4)ccc3F)c2[nH]c1=O [Example 141, hydrochloride] | 0.36 | 2.61 |
| CCCNC(=O)c1c(N)c2cccc(-c3cc(Cc4ncn(CC)n4)ccc3F)c2[nH]c1=O [Example 145, 4-Amino-8-(5-((1-ethyl-1H-1,2,4-triazol-3-yl)methyl)-2-fluorophenyl)-2-oxo-N-propyl-1,2-dihydroquinoline-3-carboxamide] | 0.28 | 1.29 |
